Holding throughout (type): cell-based
The subject of assay [1] is LDLR. As to the kind of experiment: LDLR expression of primary γδ T cells pre-treated with statin. Conditions: different concentrations, compared to lentiviral vector only-transduced cells, FIGS. 10A-10B. On the procedure: Next, the effect of pre-treatment with statin in lentiviral transduction of primary γδ T cells on LDLR expression was evaluated. Three primary γδ T cells samples from healthy donors were expanded with Zol for five days, pre-treated in the presence or absence of Rosuvastatin and Atorvastatin at different concentrations, as described above, and evaluated for LDLR expression.

Assay [2] relates to primary γδ T cells. Kind of assay: Frequency of Vγ9Vδ2 subset of primary γδ T cells pre-treated with statin (flow cytometry). Conditions: different concentrations, compared to lentiviral vector only at 0 statin concentration, FIGS. 11A-11B. On the procedure:
Next, the effect of pre-treatment with statin in lentiviral transduction of primary γδ T cells on the frequency of Vγ9Vδ2 T cell subset within the γδ T cells was evaluated. Three primary γδ T cells samples from healthy donors were expanded with Zol for five days, pre-treated in the presence or absence of Rosuvastatin or Atorvastatin at different concentrations, as described above, and evaluated for Vγ9Vδ2 expression, using flow cytometry.

The subject of assay [3] is primary NK cells. As to the kind of experiment: Surface CAR expression of primary NK cells transduced with Antigen-1 CAR lentivirus with or without PDK1 inhibitor (flow cytometry). Conditions: BX795 0.5 to 7.5 μM, compared to cells transduced without BX795, n=2, FIGS. 2B-2C. Here is the method:
NK cells were first activated in preparation of the transduction. One day 0, 0.5-1×10^6 NK cells per well were distributed in a 24-well plate.
Loaded Anti-Biotin MACSiBead particles (Miltenyi Biotech, Cat #130-094-483) for NK cell activation were resuspended thoroughly and were transferred to a suitable tube at the amount of 5 μL (5×10^5 loaded Anti-Biotin MACSiBead particles) per 1×10^6 NK cells. 100 μL culture medium was added to the loaded Anti-Biotin MACSiBead particles. The mixture was centrifuged at 300×g for 5 minutes so that the beads were washed prior to being added to the plated NK cells. […]
Lentiviral transduction was performed on day 5 or 6. […] The amount of virus needed for transducing cells was determined based on desired multiplicity of infection (MOI). […]
Cells were monitored as early as day 3-4 post transduction for surface CAR expression. The cell number of NK cells was determined. […] The CAR expression on NK cells was then measured using flow cytometry analysis.
To test whether PDK1 inhibitors can improve CAR transduction efficiency or surface CAR stability, primary NK cells were activated and transduced with a Antigen-1 CAR in the presence or absence of an PDK1 inhibitor, BX795 (InvivoGen, cat #tlrl-bx7), at concentrations varying from 0.5 to 7.5 μM. […] Surface CAR expression was monitored at regular intervals using an anti-myc tag AF647 antibody (Cell Signaling, Cat #2233, 1:200).
On the technique in general: A flow cytometer gives signals particle by particle.

The test system of assay [4] is low-density lipoprotein receptor (LDLR). As to the kind of experiment: LDLR expression on primary NK cells after statin pre-treatment during activation. The settings on record: 5 μM during activation, DMSO negative control, n=3, FIG. 3A. Here is the method:
To test whether statins can improve CAR transduction efficiency or surface CAR stability, cells were pre-treated with 5 μM Rosuvastatin (Cayman Chemical, cat #12029) during the activation prior to the transduction. Then, activated primary NK cells were transduced with a Antigen-2 CAR at MOI of 5. Cells pre-treated with DMSO were included as a negative control.

In assay [5] the test system is primary NK cells. As to the kind of experiment: Antigen-2 CAR expression of primary NK cells transduced after statin pre-treatment. The settings on record: primary NK cells pre-treated with 5 μM, MOI of 5, FIG. 3B. Here is the method: Lentiviral transduction was performed on day 5 or 6. NK cells were resuspended to determine if cell number had changed from day 0. Lentiviral particles were thawed on ice. Once thawed, lentiviral particles were taken out from ice and equilibrated to room temperature before being added to the activated NK cells. The amount of virus needed for transducing cells was determined based on desired multiplicity of infection (MOI). Once the NK cells were transduced with lentiviral particles, they were returned to the incubator at 37° C. and 5% CO2.
Cells were monitored as early as day 3-4 post transduction for surface CAR expression. The cell number of NK cells was determined. 1×10^5 NK cells were collected from each sample and transferred into wells of a microtiter plate. The cells in each well of the microtiter plate were washed twice with 200 μL FACS Buffer each time. The wells were stained with 100 μL staining buffer containing appropriate CAR detection antibodies. The plate was incubated for at least 30 minutes at 4° C. without light. The cells were then washed twice with 150 μL FACS Buffer each time and were centrifuged at 400×g for 4 minutes at room temperature. The CAR expression on NK cells was then measured using flow cytometry analysis. […]

In the case of `CC(C)c1c(C(=O)Nc2ccccc2)c(-c2ccccc2)c(-c2ccc(F)cc2)n1CC[C@@H](O)C[C@@H](O)CC(=O)O` [Atorvastatin], the LDLR expression entry in assay [1] is listed as “increased the LDLR expression”. For the same compound, the “frequency of Vγ9Vδ2 cells” value in assay [2] is “did not change the frequency of Vγ9Vδ2 cells”.

Turning to `O=C(NCCCNc1nc(Nc2cccc(NC(=O)N3CCCC3)c2)ncc1I)c1cccs1` [BX795], the “surface CAR stability” value in assay [3] is “improved surface CAR stability in a dose dependent manner”.

As for `CC(C)c1nc(N(C)S(C)(=O)=O)nc(-c2ccc(F)cc2)c1/C=C/[C@@H](O)C[C@@H](O)CC(=O)O` [Rosuvastatin], the “LDLR expression on the cells” value in assay [4] was “increased levels of LDLR expression”. Moreover, the “Antigen-2 CAR expression” value in assay [5] is given as “increased Antigen-2 CAR expression”. Also, the LDLR expression result in assay [1] is “increased the LDLR expression”. In addition, the “frequency of Vγ9Vδ2 cells” value in assay [2] is on record as “did not change the frequency of Vγ9Vδ2 cells”.

The record behind these values is patent US20250188492A1, “Enhanced Transfer of Genetic Instructions to Effector Immune Cells” (Janssen Biotech, Inc., priority 2022, published 2025).
